Measured values reported in patent publication US12285404B2, “Prevention of rosacea inflammation” (The Regents of the University of California, priority 2013, dated 2025).
Values belong to the substance of their own block, whether it stands above or below them.

How the values were obtained:
[1] = system: bone marrow derived mouse MCs; assay: In vitro Cath LL-37 challenge of bone marrow derived mouse MCs; type: cell-based
Experimental: (§1) (a) Bone marrow derived mouse MCs were challenged in vitro with 10 ug/mL Cath LL-37 or PBS as indicated. The cells were harvested at different time points and the mRNA was extracted and assessed by RT-PCR for tryptase, chymase and Mmp-9 expression. (b) Cell culture supernatant from bone marrow derived MCs was taken after 24 hrs of Cath LL-37 challenge. MMP and MMP-9 specific activities were measured by assessing cleavage of MMP substrate in the presence or absence of a specific MMP-9 inhibitor, as indicated. (c) Bone marrow derived MCs were treated, as indicated, for 24 hrs before collecting supernatants and assessing degranulation percentage by measuring β-hexosaminidase release. (d) Cultured mouse MCs were challenged with the indicated concentrations of Cath LL-37 for 24 or 48 hrs before supernatants were collected and the amounts of IL-6 secretion were measured. (e) Il-6 mRNA expression was measured by RT-PCR in mouse skin biopsies after 0, 1, 4, and 24 hrs of Cath LL-37 challenge in WT and MC deficient mice, as indicated. Statistics: t-test ***p<0.001 (n=3).
Primary MCs were generated from mouse bone marrow and cultured as previously written (Wang et al., 2011). MCs were cultured in Stemline® II Hematopoietic Stem Cell Expansion Medium (Sigma-Aldrich).
(§2) Total-MMP activities were determined by following previously reported study (Kanada et al., 2012). To determine MMP-9 activity, MMP-9 specific inhibitor I (Thermo Fisher Scientific, Chicago, IL) was used.
(§3) cDNA was synthesized from RNA using the iScript cDNA Synthesis Kit (BioRad, Hercules, CA) according to the manufacturer's protocol. cDNA was normalized using a NanoDrop spectrophotometer (Thermo Fisher Scientific Inc.). Probes from TagMan Gene Expression Assays (Applied Biosystems ABI, Foster City, CA) were used to analyze gene expressions with following to the manufacturer's instructions. Gapdh mRNA was used as an internal control to validate RNA for each sample. mRNA expression was calculated as the relative expression to Gapdh mRNA, and all data are presented as fold change of each control.
Degranulation percentage was assessed by measuring the activity of β-hexosaminidase in the supernatants as previously described (Wang et al., 2012).
ELISA (ELISA MAX™ Deluxe; BioLegend, San Diego, CA) was utilized to determine mouse IL-6 according to the manufacturer's instructions, normalized to total protein content.
To confirm that mast cells are responsive to direct Cath LL-37 stimulation, bone marrow derived mouse MCs were stimulated with different concentrations of Cath LL-37 at different time points. […] MMP-9 protease activity in the culture medium of MCs stimulated with Cath-LL37 for 24 hrs was confirmed by fluorescence enzymatic activity assay using an MMP specific substrate and an MMP-9 specific inhibitor (FIG. 2b).

[2] = system: WT (C57BL/6) and MC-deficient (KitWsh-/-) mice; assay: Rosacea mouse model: intradermal Cath LL-37 in WT and MC-deficient (KitWsh-/-) mice; type: in vivo
Experimental: (a) Human biopsy samples from healthy and rosacea subjects were assessed for chymase and Mmp-9 mRNA expressions (n=6). (b) Photographs of the rosacea mouse model. 24 hrs after removal of the hair, the back skins of wild type (C57BL/6) and MC-deficient (KitWsh^−/−) mice were injected intradermally with 50 μl of 320 μM Cath LL-37 or filtered PBS twice a day for 2 days. Clinical observation was carried out for 72 hours. (c) Skins from WT, WT MC reconstituted KitWsh^−/− and KitWsh^−/− mice were challenged as indicated and harvested after 72 hours of observation. Mmp-9 mRNA expression in each sample was assessed by RT-PCR. (d) Assessment of MMP protease activities in WT mouse skin following challenge with PBS or the indicated amounts of Cath LL-37. (e) Skin biopsies from WT or KitWsh^−/− mice were analyzed by RT-PCR for the expression of MC proteases at 0, 1, 4, and 24 hrs after Cath LL-37 challenge. Statistics: Mann Whitney test, one-way and two-way ANOVA*p<0.05, **p<0.01, ***p<0.001 (1b-1e: n=3).
as §1
Mast cell deficient (C57BL/6-KitWsh^−/−) mice were bred. KitWsh^−/− mice bearing the W-sash (Wsh) inversion mutation have MC deficiency, but lack anemia and sterility. […] Wild type mice (C57BL/6) were utilized as control. Mice were shaved 24 hrs before intradermal injection with 50 μl of 50 μM or 320 μM of Cath LL-37 or filtered PBS (n=3), twice a day for 2 days and skin biopsies were taken after 72 hours of observation. Total RNA was extracted and purified by RNeasy Mini Kit (QIAGEN science). For the time course observation, skin biopsies of WT and MC deficient mice were taken at 1, 4, and 24 hrs after Cath LL-37 injection.
BMMC reconstitution in KitWsh−/− mice. 4×10^6 cells of C57BL/6 mature BMMCs were diluted in filtered PBS and injected into the shaved back skin of 6 week old C57BL/6− KitWsh^−/− mice (400 μl; 8×50 μl injections) intradermally. After 6 weeks, MCs were confirmed as resident cells in skin by toluidine blue staining.
as §2, §3
Cath LL-37 was injected intradermally into mast cell deficient mice (KitWsh^−/−) and compared the resulting inflammation with Wild Type (WT) mice. […]

WT and KitWsh-/- mice = assay: Neuropeptide experiment: intradermal neuropeptide in WT and KitWsh-/- mice, skin mRNA by RT-PCR; type: in vivo, mouse; conditions: 100 μL of 1 μM intradermally, 6 hrs
Experimental: WT and KitWsh^−/− mice were injected with PBS or 100 μL of 1 μM neuropeptide (SP, substance P; ADM-2, adrenomedullin-2; PACAP, pituitary adenylate cyclase-activating peptide) intradermally, as indicated. Skin biopsies were harvested 6 hrs after injection and mRNA expressions of (a) proteases (chymase, tryptase, Mmp-9 and Mmp-1) and (b) proinflammatory cytokines (Cxcl2 and Tnf-α) were assessed by RT-PCR. Statistics: two-way ANOVA*p<0.05, **p<0.01, ***p<0.001 (n=3).
For the neuropeptide experiment, 100 μL of 1 μM neuropeptide or PBS was injected into mice intradermally. Skin biopsies were taken 6 hrs after injection.
as §3
Rosacea flare-ups are frequently initiated by face flushing due to neuronal dysfunction and increased release of pituitary adenylate cyclase-activating peptide (PACAP) (Schwab et al., 2011). To investigate whether neuropeptides (NPs) require MC activation for the development of the inflammatory response in rosacea, 100 μL of 1 μM NP (substance P: SP, adrenomedullin-2: ADM-2, PACAP) was injected intradermally into WT and MC deficient mice. […] Moreover, these same MC enzymes can further increase the levels of free Cath LL-37 and amplify the inflammatory response.

[3] = Cath LL-37 stimulated MCs, at 5 hrs
[4] = Cath LL-37 stimulated MCs, at 5 hrs, p<0.001
[5] = MC-deficient mice after Cath LL-37
[6] = WT mice, 0, 1, 4, 24 hrs after Cath LL-37

- chymase expression in skin (time course) [2, 5]: not detectable
- tryptase expression in skin (time course) [2, 5]: not detectable
- chymase expression in skin (time course) [2, 6]: expressed immediately after injection
- tryptase expression in skin (time course) [2, 6]: expressed immediately after injection
Substance: Cath LL-37: LL-37 Cathelicidin antimicrobial peptide, C-terminal 37 amino acids of human cathelicidin
- secreted IL-6 (ELISA) ([1]; 24 and 48 hrs of stimulation, Cath LL-37 20 nM and 40 nM): high levels
- Klk5 mRNA expression [1, 3]: not detectable
- Klk6 mRNA expression [1, 3]: not detectable
- Mmp-1a mRNA expression [1, 3]: not detectable
- Mmp-9 mRNA expression [1, 4]: significantly higher
- Tryptase mRNA expression [1, 4]: significantly higher
- chymase mRNA expression [1, 4]: significantly higher
- MMP-9 protease activity in the culture medium ([1]; MCs stimulated with Cath-LL37 for 24 hrs, MMP specific substrate and MMP-9 specific inhibitor): confirmed
- MC degranulation (β-hexosaminidase release) ([1]; low concentration of Cath LL-37 (20 nM), supernatants after 24 hrs): able to induce degranulation
- clinical end point observation of skin ([2]; KitWsh-/- mice, intradermal Cath LL-37, at 72 hrs): did not develop any rosacea-like features
- IL-6 mRNA expression in skin ([2]; WT mice following Cath LL-37 challenge): Increased
- MMP activity in skin ([2]; WT mice, 50 μM and 320 μM Cath LL-37 injected): increases in a dose dependent manner
- clinical end point observation of skin ([2]; WT mice, intradermal Cath LL-37 twice a day for 2 days, at 72 hrs): rosacea-like inflammation
- Mmp-9 mRNA expression in skin from MC deficient mice compared with WT and WT MC-reconstituted KitWsh-/- mice ([2]; after peptide challenge, 72 hours, p<0.01 vs WT, p<0.05 vs reconstituted): significantly lower
- IL-6 mRNA expression in skin ([2]; mast cell deficient mice following Cath LL-37 challenge): not in mast cell deficient mice

- Tryptase mRNA expression in skin (WT and KitWsh-/- mice; WT mice, p<0.01): dramatically increased
- Chymase mRNA expression in skin (WT and KitWsh-/- mice; WT mice, p<0.05): significantly increased
Substance: pituitary adenylate cyclase-activating peptide [PACAP]
- Tnf-a mRNA expression in skin (WT and KitWsh-/- mice; MC deficient mice): not in MC deficient mice
- Cxcl2 mRNA expression in skin (WT and KitWsh-/- mice; WT mice, p<0.01): significantly increased
- Tnf-a mRNA expression in skin (WT and KitWsh-/- mice; WT mice, p<0.01): significantly increased
- Mmp-1 mRNA expression in skin (WT and KitWsh-/- mice; WT mice, p<0.05): significantly increased
- Mmp-9 mRNA expression in skin (WT and KitWsh-/- mice; WT mice, p<0.05): significantly increased
